Test results as given in publication PMC5218480 (PLoS ONE, 2017).

Tested on: MV-4-11 cells
Experiment: Gene expression microarray analysis (Affymetrix PrimeView) and GSEA
Format: cell-based, human
Set-up: RFU PODN (11730768_x_at) / Fold change /veh PODN (11730768_x_at) / RFU LINC00158 (11744669_a_at) / Fold change /veh LINC00158 (11744669_a_at) / RFU DUSP10 (11751237_a_at) / Fold change /veh DUSP10 (11751237_a_at) / RFU ID3 (11757404_x_at) / Fold change /veh ID3 (11757404_x_at) / RFU PLEKHG5 (11737974_s_at) / Fold change /veh PLEKHG5 (11737974_s_at) / RFU LRRC4B (11730491_at) / Fold change /veh LRRC4B (11730491_at) / RFU GIMAP4 (11747438_a_at) / Fold change /veh GIMAP4 (11747438_a_at) / RFU KRT8 (11758183_x_at) / Fold change /veh KRT8 (11758183_x_at) / RFU CNN1 (11734310_a_at) / Fold change /veh CNN1 (11734310_a_at) / RFU VPS37D (11726825_at) / Fold change /veh VPS37D (11726825_at) / RFU C10orf10 (11716522_x_at) / Fold change /veh C10orf10 (11716522_x_at) / RFU KIR2DL2 /// KIR2DL4 /// KIR2DL5A /// KIR2DL5B /// KIR2DS1 /// KIR2DS2 /// KIR2DS3 /// KIR2DS4 /// KIR3DL3 /// KIR3DL3 /// KIR3DS1 (11738374_at) / Fold change /veh KIR2DL2 /// KIR2DL4 /// KIR2DL5A /// KIR2DL5B /// KIR2DS1 /// KIR2DS2 /// KIR2DS3 /// KIR2DS4 /// KIR3DL3 /// KIR3DL3 /// KIR3DS1 (11738374_at) / RFU C1QL1 (11718748_at) / Fold change /veh C1QL1 (11718748_at) / RFU TMPRSS4 (11747572_a_at) / Fold change /veh TMPRSS4 (11747572_a_at) / RFU HAMP (11756126_x_at) / Fold change /veh HAMP (11756126_x_at) / RFU RNFT2 (11725882_a_at) / Fold change /veh RNFT2 (11725882_a_at) / RFU NR4A2 (11747474_a_at) / Fold change /veh NR4A2 (11747474_a_at) / RFU ABCC12 (11746883_a_at) / Fold change /veh ABCC12 (11746883_a_at) / RFU TMEM136 (11760407_x_at) / Fold change /veh TMEM136 (11760407_x_at) / RFU CLDN22 /// WWC2 (11732394_at) / Fold change /veh CLDN22 /// WWC2 (11732394_at) / RFU HLA-DPB1 (11760878_x_at) / Fold change /veh HLA-DPB1 (11760878_x_at) / RFU SPINT1 (11716480_a_at) / Fold change /veh SPINT1 (11716480_a_at) / RFU GAP43 (11754022_s_at) / Fold change /veh GAP43 (11754022_s_at) / RFU A4GNT (11735810_at) / Fold change /veh A4GNT (11735810_at) / RFU PRB3 (11715151_x_at) / Fold change /veh PRB3 (11715151_x_at) / RFU TUBB4B (11761932_at) / Fold change /veh TUBB4B (11761932_at) / RFU CAPN14 (11732068_a_at) / Fold change /veh CAPN14 (11732068_a_at) / RFU TMCC2 (11721928_a_at) / Fold change /veh TMCC2 (11721928_a_at) / RFU IRGQ (11745062_a_at) / Fold change /veh IRGQ (11745062_a_at) / RFU FAM174B (11720279_a_at) / Fold change /veh FAM174B (11720279_a_at) / RFU TMPRSS4 (11748680_a_at) / Fold change /veh TMPRSS4 (11748680_a_at) / RFU FAM212B (11763350_a_at) / Fold change /veh FAM212B (11763350_a_at) / RFU PLEKHG5 (11743358_a_at) / Fold change /veh PLEKHG5 (11743358_a_at) / RFU ZSCAN30 (11745921_a_at) / Fold change /veh ZSCAN30 (11745921_a_at) / RFU CMKLR1 (11741424_a_at) / Fold change /veh CMKLR1 (11741424_a_at) / RFU LOC101060620 /// MAPK8IP1 (11723275_at) / Fold change /veh LOC101060620 /// MAPK8IP1 (11723275_at) / RFU SPTSSB (11747773_x_at) / Fold change /veh SPTSSB (11747773_x_at) / RFU PRSS12 (11739890_at) / Fold change /veh PRSS12 (11739890_at) / RFU BIN1 (11741810_x_at) / Fold change /veh BIN1 (11741810_x_at) / RFU WNT11 (11732464_a_at) / Fold change /veh WNT11 (11732464_a_at) / RFU C10orf10 (11716521_a_at) / Fold change /veh C10orf10 (11716521_a_at) / RFU C5orf56 (11738089_at) / Fold change /veh C5orf56 (11738089_at) / RFU CYB561 (11721691_x_at) / Fold change /veh CYB561 (11721691_x_at) / RFU ANKRD19P (11752326_a_at) / Fold change /veh ANKRD19P (11752326_a_at) / RFU OR2T12 /// OR2T33 /// OR2T8 (11738714_s_at) / Fold change /veh OR2T12 /// OR2T33 /// OR2T8 (11738714_s_at) / RFU VCAN (11748164_a_at) / Fold change /veh VCAN (11748164_a_at) / RFU JSRP1 (11732532_at) / Fold change /veh JSRP1 (11732532_at) / RFU KRTAP10-11 (11738290_x_at) / Fold change /veh KRTAP10-11 (11738290_x_at) / RFU MYO3A (11730013_a_at) / Fold change /veh MYO3A (11730013_a_at) / RFU EBF3 (11725865_a_at) / Fold change /veh EBF3 (11725865_a_at) / RFU CAMK2N1 (11719241_x_at) / Fold change /veh CAMK2N1 (11719241_x_at) / RFU C5orf56 (11738088_a_at) / Fold change /veh C5orf56 (11738088_a_at) / RFU OLFML3 (11715873_a_at) / Fold change /veh OLFML3 (11715873_a_at) / RFU LOC100653217 /// NTM (11731650_a_at) / Fold change /veh LOC100653217 /// NTM (11731650_a_at) / RFU MAPK11 (11762145_a_at) / Fold change /veh MAPK11 (11762145_a_at) / RFU FIZ1 (11724087_x_at) / Fold change /veh FIZ1 (11724087_x_at) / RFU OASL (11726364_x_at) / Fold change /veh OASL (11726364_x_at) / RFU SOX15 (11748057_x_at) / Fold change /veh SOX15 (11748057_x_at) / RFU CD79A (11719716_a_at) / Fold change /veh CD79A (11719716_a_at) / RFU HIST1H1D (11736915_at) / Fold change /veh HIST1H1D (11736915_at) / RFU CASKIN2 (11723855_a_at) / Fold change /veh CASKIN2 (11723855_a_at) / RFU LOC730098 (11760151_x_at) / Fold change /veh LOC730098 (11760151_x_at) / RFU OR4N2 (11742367_at) / Fold change /veh OR4N2 (11742367_at) / RFU PRRT2 (11749266_a_at) / Fold change /veh PRRT2 (11749266_a_at) / RFU SNX32 (11753110_a_at) / Fold change /veh SNX32 (11753110_a_at) / RFU CDHR5 (11726645_a_at) / Fold change /veh CDHR5 (11726645_a_at) / RFU RCAN1 (11760418_a_at) / Fold change /veh RCAN1 (11760418_a_at) / RFU FAM167A (11723789_a_at) / Fold change /veh FAM167A (11723789_a_at) / RFU FAM26E (11764081_at) / Fold change /veh FAM26E (11764081_at) / RFU ISYNA1 (11749810_s_at) / Fold change /veh ISYNA1 (11749810_s_at) / RFU ACY1 (11761880_at) / Fold change /veh ACY1 (11761880_at) / RFU 11764098_at / Fold change /veh 11764098_at / RFU SAMD14 (11745864_x_at) / Fold change /veh SAMD14 (11745864_x_at) / RFU NPB (11741838_a_at) / Fold change /veh NPB (11741838_a_at) / RFU TMPRSS6 (11731388_a_at) / Fold change /veh TMPRSS6 (11731388_a_at) / RFU KRTAP10-2 (11738614_at) / Fold change /veh KRTAP10-2 (11738614_at) / RFU ARHGAP8 /// PRR5-ARHGAP8 (11727945_x_at) / Fold change /veh ARHGAP8 /// PRR5-ARHGAP8 (11727945_x_at) / RFU KRTAP5-7 /// NADSYN1 (11734609_at) / Fold change /veh KRTAP5-7 /// NADSYN1 (11734609_at) / RFU RASL12 (11751679_a_at) / Fold change /veh RASL12 (11751679_a_at) / RFU CDKN2B (11736163_a_at) / Fold change /veh CDKN2B (11736163_a_at) / RFU PRF1 (11729649_at) / Fold change /veh PRF1 (11729649_at) / RFU, ZNF638 /// ZNF638-IT1 / Fold change vs veh, ZNF638 /// ZNF638-IT1 / RFU, PANK3 / Fold change vs veh, PANK3 / RFU, SH3YL1 / Fold change vs veh, SH3YL1 / RFU, ZEB2 / Fold change vs veh, ZEB2 / RFU, NRIP1 / Fold change vs veh, NRIP1 / RFU, PTTG1IP / Fold change vs veh, PTTG1IP / RFU, CAPN2 / Fold change vs veh, CAPN2 / RFU, MED14 / Fold change vs veh, MED14 / RFU, SNORA58 / Fold change vs veh, SNORA58 / RFU, C1orf63 / Fold change vs veh, C1orf63 / RFU, LRRFIP1 / Fold change vs veh, LRRFIP1 / RFU, NDUFAF7 / Fold change vs veh, NDUFAF7 / RFU, SLC12A2 / Fold change vs veh, SLC12A2 / RFU, IBTK / Fold change vs veh, IBTK / RFU, ESF1 / Fold change vs veh, ESF1 / Fold change vs veh, TMEM50B / RFU, TAOK1 / Fold change vs veh, TAOK1 / RFU, ACBD3 / Fold change vs veh, ACBD3 / RFU, TMA16 / Fold change vs veh, TMA16 / RFU, RWDD3 / Fold change vs veh, RWDD3 / RFU, BCAT1 / Fold change vs veh, BCAT1 / RFU, EDEM3 / Fold change vs veh, EDEM3 / RFU, TMEM33 / Fold change vs veh, TMEM33 / RFU, WDR75 / Fold change vs veh, WDR75 / RFU, AHCTF1 / Fold change vs veh, AHCTF1 / RFU, TFRC / Fold change vs veh, TFRC / RFU, ZDHHC17 / Fold change vs veh, ZDHHC17 / RFU, NOM1 / Fold change vs veh, NOM1 / RFU, ARL8B / Fold change vs veh, ARL8B / RFU, ZBTB11 / Fold change vs veh, ZBTB11 / RFU, TAMM41 / Fold change vs veh, TAMM41 / RFU, KIAA1704 /// LOC100996395 / Fold change vs veh, KIAA1704 /// LOC100996395 / RFU, ING1 / Fold change vs veh, ING1 / RFU, TRMT61B / Fold change vs veh, TRMT61B / RFU, FUBP3 / Fold change vs veh, FUBP3 / RFU, TP53 / Fold change vs veh, TP53 / RFU, TNKS2 / Fold change vs veh, TNKS2 / RFU, ZFP14 / Fold change vs veh, ZFP14 / RFU, ACTR2 / Fold change vs veh, ACTR2 / RFU, PPP3R1 / Fold change vs veh, PPP3R1 / RFU, PIK3R1 / Fold change vs veh, PIK3R1 / RFU, HNRNPA1 / Fold change vs veh, HNRNPA1 / RFU, RNF170 / Fold change vs veh, RNF170 / RFU, ZNF28 / Fold change vs veh, ZNF28 / RFU, RNGTT / Fold change vs veh, RNGTT / RFU, OGT / Fold change vs veh, OGT / RFU, BRD1 / Fold change vs veh, BRD1 / RFU, MARS / Fold change vs veh, MARS / RFU, ZNF655 / Fold change vs veh, ZNF655 / RFU, FAHD1 / Fold change vs veh, FAHD1 / RFU, BDP1 / Fold change vs veh, BDP1 / RFU, LRRCC1 / Fold change vs veh, LRRCC1 / RFU, ARID1A / Fold change vs veh, ARID1A / RFU, ZNF146 / Fold change vs veh, ZNF146 / RFU, ZNF330 / Fold change vs veh, ZNF330 / RFU, GPN3 / Fold change vs veh, GPN3 / RFU, C9orf123 / Fold change vs veh, C9orf123 / RFU, N4BP2L2 / Fold change vs veh, N4BP2L2 / RFU, ARFIP1 / Fold change vs veh, ARFIP1 / RFU, FAM179B / Fold change vs veh, FAM179B / RFU, BCL10 / Fold change vs veh, BCL10 / RFU, UHRF1BP1L / Fold change vs veh, UHRF1BP1L / RFU, BET1 / Fold change vs veh, BET1 / RFU, CNOT2 / Fold change vs veh, CNOT2 / RFU, ZNF268 / Fold change vs veh, ZNF268 / Fold change vs veh, ZNF507 / RFU, DGCR2 / Fold change vs veh, DGCR2 / RFU, WDSUB1 / Fold change vs veh, WDSUB1 / Fold change vs veh, HSP90B1 /// MIR3652 / RFU, ADSS / Fold change vs veh, ADSS / RFU, GK / Fold change vs veh, GK / RFU, ZNF148 / Fold change vs veh, ZNF148 / RFU, TAF9 / Fold change vs veh, TAF9 / RFU, SLC1A5 / Fold change vs veh, SLC1A5 / RFU, SLMO2 / Fold change vs veh, SLMO2 / RFU, ABCC4 / Fold change vs veh, ABCC4 / RFU, LOC101060439 /// RAP1B / Fold change vs veh, LOC101060439 /// RAP1B / RFU, RFX7 / Fold change vs veh, RFX7 / RFU, GTPBP10 / Fold change vs veh, GTPBP10 / RFU, CNEP1R1 / Fold change vs veh, CNEP1R1 / RFU, BIVM-ERCC5 /// ERCC5 / Fold change vs veh, BIVM-ERCC5 /// ERCC5 / RFU, ILF3 / Fold change vs veh, ILF3 / RFU 11762660_at / Fold change /veh 11762660_at / RFU VCAN (11757783_s_at) / Fold change /veh VCAN (11757783_s_at) / RFU DDX43 (11728927_at) / Fold change /veh DDX43 (11728927_at) / RFU KRT8 (11758188_x_at) / Fold change /veh KRT8 (11758188_x_at) / RFU NKD1 (11759106_at) / Fold change /veh NKD1 (11759106_at) / RFU SRD5A1 (11742802_a_at) / Fold change /veh SRD5A1 (11742802_a_at) / RFU TPSAB1 /// TPSB2 (11721975_s_at) / Fold change /veh TPSAB1 /// TPSB2 (11721975_s_at) / RFU GSTM3 (11746129_a_at) / Fold change /veh GSTM3 (11746129_a_at) / RFU IL23R (11737362_x_at) / Fold change /veh IL23R (11737362_x_at) / RFU TMEM51 (11727254_a_at) / Fold change /veh TMEM51 (11727254_a_at) / RFU PIWIL2 (11732686_x_at) / Fold change /veh PIWIL2 (11732686_x_at) / RFU ORM1 (11744905_x_at) / Fold change /veh ORM1 (11744905_x_at) / RFU CCDC152 (11743942_at) / Fold change /veh CCDC152 (11743942_at) / RFU ECM1 (11717891_a_at) / Fold change /veh ECM1 (11717891_a_at) / RFU IL23R (11748794_a_at) / Fold change /veh IL23R (11748794_a_at) / RFU TNFAIP8L3 (11732012_x_at) / Fold change /veh TNFAIP8L3 (11732012_x_at) / RFU MBOAT4 (11741988_at) / Fold change /veh MBOAT4 (11741988_at) / RFU 11764193_at / Fold change /veh 11764193_at / RFU TMEM53 (11763286_at) / Fold change /veh TMEM53 (11763286_at) / RFU MAGEB2 (11727129_at) / Fold change /veh MAGEB2 (11727129_at) / RFU TMEM200A (11744735_a_at) / Fold change /veh TMEM200A (11744735_a_at) / RFU CCDC152 (11751479_a_at) / Fold change /veh CCDC152 (11751479_a_at) / RFU FAM211A (11726209_a_at) / Fold change /veh FAM211A (11726209_a_at) / RFU RGS16 (11746705_a_at) / Fold change /veh RGS16 (11746705_a_at) / RFU VCAN (11755009_s_at) / Fold change /veh VCAN (11755009_s_at) / RFU RHOB (11743442_s_at) / Fold change /veh RHOB (11743442_s_at) / RFU RGS16 (11720943_a_at) / Fold change /veh RGS16 (11720943_a_at) / RFU RGS16 (11720944_at) / Fold change /veh RGS16 (11720944_at) / RFU, VPS4B / Fold change vs veh, VPS4B / RFU, CREB1 / Fold change vs veh, CREB1 / RFU, DNAJC13 / Fold change vs veh, DNAJC13 / RFU, GNAQ / Fold change vs veh, GNAQ / RFU, CDK5R1 / Fold change vs veh, CDK5R1 / RFU, ZRANB3 / Fold change vs veh, ZRANB3 / RFU, CUL4A / Fold change vs veh, CUL4A / RFU, CCNY / Fold change vs veh, CCNY / RFU, UFL1 / Fold change vs veh, UFL1 / RFU, COG3 / Fold change vs veh, COG3 / RFU, DIAPH2 / Fold change vs veh, DIAPH2 / RFU, SKA2 / Fold change vs veh, SKA2 / RFU, AFF3 / Fold change vs veh, AFF3 / RFU, LMF1 / Fold change vs veh, LMF1 / RFU, IPO11 / Fold change vs veh, IPO11 / RFU, DFFB / Fold change vs veh, DFFB / RFU, FOXP1 / Fold change vs veh, FOXP1 / RFU, CARD8 / Fold change vs veh, CARD8 / RFU, STRN3 / Fold change vs veh, STRN3 / RFU, ADK / Fold change vs veh, ADK / RFU, RASSF2 / Fold change vs veh, RASSF2 / RFU, WIPF1 / Fold change vs veh, WIPF1 / RFU, LARP1B / Fold change vs veh, LARP1B / RFU, RASA1 / Fold change vs veh, RASA1 / RFU, RB1 / Fold change vs veh, RB1 / RFU, PPFIA1 / Fold change vs veh, PPFIA1 / RFU, MAT2A / Fold change vs veh, MAT2A / RFU, CCT5 / Fold change vs veh, CCT5 / RFU, WDR92 / Fold change vs veh, WDR92 / RFU, CUX1 / Fold change vs veh, CUX1 / RFU, TTC7A / Fold change vs veh, TTC7A / RFU, TMEM135 / Fold change vs veh, TMEM135 / RFU, DEPTOR / Fold change vs veh, DEPTOR / RFU, CPM / Fold change vs veh, CPM / RFU, DNAJB6 / Fold change vs veh, DNAJB6 / RFU, CACNA2D3 / Fold change vs veh, CACNA2D3 / RFU, DTX4 / Fold change vs veh, DTX4 / RFU, TFCP2 / Fold change vs veh, TFCP2 / RFU, GMCL1 /// GMCL1P1 / Fold change vs veh, GMCL1 /// GMCL1P1 / RFU, AEBP2 / Fold change vs veh, AEBP2 / RFU, SNHG1 /// SNORD22 /// SNORD25 /// SNORD26 /// SNORD27 /// SNORD28 /// SNORD29 /// SNORD31 / Fold change vs veh, SNHG1 /// SNORD22 /// SNORD25 /// SNORD26 /// SNORD27 /// SNORD28 /// SNORD29 /// SNORD31 / Fold change (Aza/veh), C12orf56 (ProbeSet 11735607_a_at) / Fold change (ACY-1035/veh), C12orf56 (ProbeSet 11735607_a_at) / Fold change (Aza/veh), FGFR1OP (ProbeSet 11751329_s_at) / Fold change (ACY-1035/veh), FGFR1OP (ProbeSet 11751329_s_at) / Fold change (Aza/veh), VPS36 (ProbeSet 11739960_a_at) / Fold change (ACY-1035/veh), VPS36 (ProbeSet 11739960_a_at) / RFU SYPL1 (11715823_x_at) / Fold change /veh SYPL1 (11715823_x_at) / RFU IGFBP7 (11715501_s_at) / Fold change /veh IGFBP7 (11715501_s_at) / RFU REEP3 (11722064_at) / Fold change /veh REEP3 (11722064_at) / RFU IGLL1 (11728026_x_at) / Fold change /veh IGLL1 (11728026_x_at): dose or concentration left out as unconfirmed
Settings: MV-4-11 cells, 48 hours

Nc1ncn([C@@H]2O[C@H](CO)[C@@H](O)[C@H]2O)c(=O)n1 [azacitidine]
Fold change /veh C5orf56 (11738088_a_at): 0.98
